According to ChEMBL document CHEMBL5696442, “Discovery of type II inhibitors of TGFβ-activated kinase 1 (TAK1) and mitogen-activated protein kinase kinase kinase kinase 2 (MAP4K2)” (J Med Chem, 2015):
Active and inactive are the calls of the source. The rule behind the calls is not given here.

Experiments:
[1] = target: Ribosomal protein S6 kinase alpha-3 (Homo sapiens) (UniProt P51812); experiment: Inhibition of RSK2 domain1 Lys2 labeling site in human Huh-7 cell lysate at 1 uM by KiNativ Profiling analysis relative to control; assay type: subcellular
[2] = target: Cyclin-dependent kinase 8 (Homo sapiens) (UniProt P49336); experiment: Inhibition of CDK8 Lys2 labeling site in human Huh-7 cells at 1 uM by KiNativ Profiling analysis relative to control; assay type: cell-based
[3] = target: STE20-related kinase adapter protein alpha (Homo sapiens) (UniProt Q7RTN6); experiment: Inhibition of STLK5 ACT labeling site in human Huh-7 cell lysate at 1 uM by KiNativ Profiling analysis relative to control; assay type: subcellular
[4] = target: Rho-associated protein kinase (Homo sapiens) (UniProt O75116+Q13464); experiment: Inhibition of ROCK1/2 K2 labeling site in human Huh-7 cells at 1 uM by KiNativ Profiling analysis relative to control; assay type: cell-based
[5] = target: T1, Mitogen-activated protein kinase kinase kinase kinase 2 (Homo sapiens) (UniProt Q12851); experiment: Inhibition of MAP4K2 (GCK) Lys1 labeling site in human A-375 cells at 0.5 uM by KiNativ Profiling analysis relative to control; assay type: cell-based
T1 sequence (whole entry): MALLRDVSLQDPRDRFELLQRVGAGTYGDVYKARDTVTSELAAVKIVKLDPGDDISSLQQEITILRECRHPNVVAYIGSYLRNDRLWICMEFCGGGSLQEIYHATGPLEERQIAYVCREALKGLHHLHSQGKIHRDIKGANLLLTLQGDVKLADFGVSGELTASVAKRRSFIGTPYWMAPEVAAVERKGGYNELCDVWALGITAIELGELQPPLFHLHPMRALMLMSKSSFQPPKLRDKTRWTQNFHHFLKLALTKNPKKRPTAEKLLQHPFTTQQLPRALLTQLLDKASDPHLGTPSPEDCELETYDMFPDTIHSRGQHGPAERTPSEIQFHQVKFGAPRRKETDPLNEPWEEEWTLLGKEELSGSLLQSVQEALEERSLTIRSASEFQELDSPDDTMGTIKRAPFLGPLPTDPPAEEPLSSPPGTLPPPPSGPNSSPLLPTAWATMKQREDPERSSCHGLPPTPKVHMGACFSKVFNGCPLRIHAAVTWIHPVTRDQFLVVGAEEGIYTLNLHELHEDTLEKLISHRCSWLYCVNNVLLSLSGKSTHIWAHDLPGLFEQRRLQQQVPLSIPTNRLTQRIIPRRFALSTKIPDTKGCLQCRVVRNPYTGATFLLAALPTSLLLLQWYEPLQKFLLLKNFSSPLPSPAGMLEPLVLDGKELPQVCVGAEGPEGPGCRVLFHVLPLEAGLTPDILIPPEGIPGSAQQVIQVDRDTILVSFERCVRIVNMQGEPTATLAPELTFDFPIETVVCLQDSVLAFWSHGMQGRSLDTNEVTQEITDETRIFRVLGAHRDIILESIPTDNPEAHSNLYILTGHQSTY

[6] = target: Dual specificity mitogen-activated protein kinase kinase 2 (Homo sapiens) (UniProt P36507); experiment: Inhibition of MAP2K2 Lys1 labeling site in human A-375 cells at 0.05 uM by KiNativ Profiling analysis relative to control; assay type: cell-based
[7] = target: Membrane-associated tyrosine- and threonine-specific cdc2-inhibitory kinase (Homo sapiens) (UniProt Q99640); experiment: Inhibition of PKMYT1 (unknown origin) at 10 uM by Ambit Kinomescan binding assay
[8] = target: STE20-like serine/threonine-protein kinase (Homo sapiens) (UniProt Q9H2G2); experiment: Inhibition of SLK (unknown origin) at 10 uM by Ambit Kinomescan binding assay relative to control; values are per cent of control
[9] = target: T2, Serine/threonine-protein kinase Nek1 (Homo sapiens) (UniProt Q96PY6); experiment: Inhibition of NEK1 (unknown origin) at 1 uM by Ambit Kinomescan binding assay relative to control; values are per cent of control
T2 sequence (whole entry): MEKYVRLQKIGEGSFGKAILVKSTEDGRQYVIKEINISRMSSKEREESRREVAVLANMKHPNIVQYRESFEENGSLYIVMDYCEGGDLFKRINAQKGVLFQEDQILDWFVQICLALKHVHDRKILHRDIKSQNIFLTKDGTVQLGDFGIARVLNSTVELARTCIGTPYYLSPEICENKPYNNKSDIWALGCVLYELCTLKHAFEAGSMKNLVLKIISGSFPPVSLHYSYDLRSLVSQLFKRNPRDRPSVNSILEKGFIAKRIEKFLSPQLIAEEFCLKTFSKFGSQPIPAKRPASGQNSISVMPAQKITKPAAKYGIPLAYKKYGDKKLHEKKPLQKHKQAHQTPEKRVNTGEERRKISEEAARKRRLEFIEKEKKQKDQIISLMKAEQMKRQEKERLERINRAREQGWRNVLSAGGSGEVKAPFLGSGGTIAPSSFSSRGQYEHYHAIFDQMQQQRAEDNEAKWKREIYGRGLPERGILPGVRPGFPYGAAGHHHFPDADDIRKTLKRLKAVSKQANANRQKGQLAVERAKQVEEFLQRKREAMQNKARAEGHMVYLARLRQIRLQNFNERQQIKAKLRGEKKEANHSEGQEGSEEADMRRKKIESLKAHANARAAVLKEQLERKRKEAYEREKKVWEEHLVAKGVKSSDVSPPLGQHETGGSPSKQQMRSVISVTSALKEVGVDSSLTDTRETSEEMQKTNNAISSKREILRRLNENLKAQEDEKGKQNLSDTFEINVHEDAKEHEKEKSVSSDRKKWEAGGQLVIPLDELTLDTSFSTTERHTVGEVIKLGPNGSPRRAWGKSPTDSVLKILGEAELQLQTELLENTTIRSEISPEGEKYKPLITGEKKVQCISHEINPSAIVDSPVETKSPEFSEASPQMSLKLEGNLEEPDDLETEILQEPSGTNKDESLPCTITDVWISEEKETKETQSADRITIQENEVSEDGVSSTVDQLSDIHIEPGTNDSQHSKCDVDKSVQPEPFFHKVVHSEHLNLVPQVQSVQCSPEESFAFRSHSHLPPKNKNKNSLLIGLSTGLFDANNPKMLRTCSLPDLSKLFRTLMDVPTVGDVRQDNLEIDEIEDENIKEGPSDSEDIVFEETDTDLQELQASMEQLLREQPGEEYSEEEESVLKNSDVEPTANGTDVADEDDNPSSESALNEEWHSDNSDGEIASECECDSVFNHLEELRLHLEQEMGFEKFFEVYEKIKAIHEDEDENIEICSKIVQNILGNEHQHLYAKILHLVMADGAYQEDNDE

[10] = target: SNF-related serine/threonine-protein kinase (Homo sapiens) (UniProt Q9NRH2); experiment: Inhibition of SNRK (unknown origin) at 1 uM by Ambit Kinomescan binding assay relative to control
Chain of SNF-related serine/threonine-protein kinase (Homo sapiens) (Q9NRH2 whole entry): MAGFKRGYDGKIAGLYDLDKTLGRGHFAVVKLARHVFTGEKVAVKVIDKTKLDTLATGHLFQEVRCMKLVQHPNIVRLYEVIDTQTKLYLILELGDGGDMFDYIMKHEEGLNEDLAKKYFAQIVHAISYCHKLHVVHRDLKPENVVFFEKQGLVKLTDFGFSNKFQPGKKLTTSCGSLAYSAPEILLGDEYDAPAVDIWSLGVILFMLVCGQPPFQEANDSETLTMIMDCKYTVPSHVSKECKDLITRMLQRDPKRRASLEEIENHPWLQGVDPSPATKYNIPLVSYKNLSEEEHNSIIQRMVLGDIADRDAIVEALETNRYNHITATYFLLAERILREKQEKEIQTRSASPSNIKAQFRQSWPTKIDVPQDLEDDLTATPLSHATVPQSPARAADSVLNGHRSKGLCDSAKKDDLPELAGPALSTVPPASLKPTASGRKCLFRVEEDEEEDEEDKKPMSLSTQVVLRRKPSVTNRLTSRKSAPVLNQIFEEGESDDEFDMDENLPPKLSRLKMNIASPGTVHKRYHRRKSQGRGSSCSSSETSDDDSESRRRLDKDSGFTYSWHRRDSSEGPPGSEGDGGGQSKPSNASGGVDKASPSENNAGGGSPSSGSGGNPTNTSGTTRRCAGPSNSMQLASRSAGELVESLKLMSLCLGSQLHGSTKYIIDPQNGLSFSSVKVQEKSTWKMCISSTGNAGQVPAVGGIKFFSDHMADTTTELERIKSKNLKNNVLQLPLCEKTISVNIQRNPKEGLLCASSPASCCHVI

Chain of Membrane-associated tyrosine- and threonine-specific cdc2-inhibitory kinase (Homo sapiens) (Q99640 whole entry): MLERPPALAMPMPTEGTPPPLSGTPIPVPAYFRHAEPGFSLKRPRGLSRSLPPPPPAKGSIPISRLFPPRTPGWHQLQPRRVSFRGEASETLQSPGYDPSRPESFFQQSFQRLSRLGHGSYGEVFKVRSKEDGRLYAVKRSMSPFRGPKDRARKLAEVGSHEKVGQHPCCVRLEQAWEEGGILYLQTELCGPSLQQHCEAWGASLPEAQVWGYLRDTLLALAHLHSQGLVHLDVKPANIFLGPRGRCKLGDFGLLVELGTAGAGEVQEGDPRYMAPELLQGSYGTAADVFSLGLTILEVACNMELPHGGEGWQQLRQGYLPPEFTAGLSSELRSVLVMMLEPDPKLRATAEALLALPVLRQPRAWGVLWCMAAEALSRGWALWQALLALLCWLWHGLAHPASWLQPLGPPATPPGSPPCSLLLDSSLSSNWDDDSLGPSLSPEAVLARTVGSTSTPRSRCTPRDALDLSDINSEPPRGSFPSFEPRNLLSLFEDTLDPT
Chain of STE20-like serine/threonine-protein kinase (Homo sapiens) (Q9H2G2 whole entry, looked up): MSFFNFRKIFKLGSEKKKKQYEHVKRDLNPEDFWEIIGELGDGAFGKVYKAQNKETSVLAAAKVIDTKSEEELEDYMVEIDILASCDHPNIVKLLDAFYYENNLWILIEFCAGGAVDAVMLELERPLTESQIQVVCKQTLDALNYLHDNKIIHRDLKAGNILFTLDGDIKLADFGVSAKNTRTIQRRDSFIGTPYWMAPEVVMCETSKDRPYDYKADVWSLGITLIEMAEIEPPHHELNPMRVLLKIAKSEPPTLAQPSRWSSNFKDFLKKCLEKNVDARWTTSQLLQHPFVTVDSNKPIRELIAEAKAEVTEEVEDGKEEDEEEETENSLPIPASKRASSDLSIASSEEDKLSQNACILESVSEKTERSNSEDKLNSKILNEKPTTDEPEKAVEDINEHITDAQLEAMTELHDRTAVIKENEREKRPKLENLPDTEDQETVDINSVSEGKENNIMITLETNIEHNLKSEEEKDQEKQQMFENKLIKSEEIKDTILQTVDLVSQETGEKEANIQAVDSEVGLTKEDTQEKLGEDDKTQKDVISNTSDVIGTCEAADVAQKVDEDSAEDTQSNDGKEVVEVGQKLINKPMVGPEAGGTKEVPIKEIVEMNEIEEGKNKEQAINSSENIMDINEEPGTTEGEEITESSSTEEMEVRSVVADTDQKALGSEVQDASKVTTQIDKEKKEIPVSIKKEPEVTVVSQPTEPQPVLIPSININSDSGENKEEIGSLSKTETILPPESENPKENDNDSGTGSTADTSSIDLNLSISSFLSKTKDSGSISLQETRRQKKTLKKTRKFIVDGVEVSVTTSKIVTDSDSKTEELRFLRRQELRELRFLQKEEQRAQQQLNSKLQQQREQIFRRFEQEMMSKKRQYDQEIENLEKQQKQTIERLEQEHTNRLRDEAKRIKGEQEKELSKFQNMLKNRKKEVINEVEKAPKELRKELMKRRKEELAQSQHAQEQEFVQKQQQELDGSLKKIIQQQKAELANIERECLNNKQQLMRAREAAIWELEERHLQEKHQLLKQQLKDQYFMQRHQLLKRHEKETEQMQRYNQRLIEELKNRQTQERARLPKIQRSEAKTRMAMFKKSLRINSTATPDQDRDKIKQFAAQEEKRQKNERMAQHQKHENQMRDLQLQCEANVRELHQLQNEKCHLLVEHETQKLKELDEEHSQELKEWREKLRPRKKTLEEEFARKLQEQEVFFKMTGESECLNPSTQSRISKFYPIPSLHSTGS
Chain of Ribosomal protein S6 kinase alpha-3 (Homo sapiens) (P51812 whole entry, the tested form may be a part): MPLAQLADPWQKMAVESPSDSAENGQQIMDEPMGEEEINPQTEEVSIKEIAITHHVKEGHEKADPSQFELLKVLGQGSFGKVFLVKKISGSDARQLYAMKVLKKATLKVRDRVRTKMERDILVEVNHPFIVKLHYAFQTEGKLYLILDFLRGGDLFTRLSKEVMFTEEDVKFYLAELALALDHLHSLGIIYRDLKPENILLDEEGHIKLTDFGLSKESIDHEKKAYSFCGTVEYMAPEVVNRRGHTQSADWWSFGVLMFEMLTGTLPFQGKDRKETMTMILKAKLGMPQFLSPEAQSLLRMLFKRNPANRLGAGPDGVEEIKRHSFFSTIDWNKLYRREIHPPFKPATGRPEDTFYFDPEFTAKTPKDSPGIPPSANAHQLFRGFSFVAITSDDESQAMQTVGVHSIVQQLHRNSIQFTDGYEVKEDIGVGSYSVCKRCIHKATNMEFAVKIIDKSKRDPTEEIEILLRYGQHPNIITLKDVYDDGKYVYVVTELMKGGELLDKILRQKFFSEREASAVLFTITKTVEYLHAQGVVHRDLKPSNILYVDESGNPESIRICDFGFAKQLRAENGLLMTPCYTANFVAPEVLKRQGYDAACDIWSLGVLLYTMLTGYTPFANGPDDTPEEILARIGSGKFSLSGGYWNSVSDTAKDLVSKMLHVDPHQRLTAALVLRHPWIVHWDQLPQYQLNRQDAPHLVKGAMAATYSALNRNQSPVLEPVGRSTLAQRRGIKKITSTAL
Chain of STE20-related kinase adapter protein alpha (Homo sapiens) (Q7RTN6 whole entry): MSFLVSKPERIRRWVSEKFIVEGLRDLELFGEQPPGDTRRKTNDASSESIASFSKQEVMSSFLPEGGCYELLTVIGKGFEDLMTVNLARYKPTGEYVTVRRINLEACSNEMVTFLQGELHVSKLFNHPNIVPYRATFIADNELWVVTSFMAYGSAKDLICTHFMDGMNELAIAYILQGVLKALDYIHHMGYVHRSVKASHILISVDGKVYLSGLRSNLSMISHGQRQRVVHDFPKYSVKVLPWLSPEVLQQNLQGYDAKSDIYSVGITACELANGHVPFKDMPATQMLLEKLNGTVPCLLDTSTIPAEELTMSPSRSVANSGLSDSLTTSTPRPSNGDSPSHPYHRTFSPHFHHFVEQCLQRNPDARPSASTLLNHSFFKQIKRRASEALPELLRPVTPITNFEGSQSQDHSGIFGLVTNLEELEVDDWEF
Chain of Dual specificity mitogen-activated protein kinase kinase 2 (Homo sapiens) (P36507 whole entry): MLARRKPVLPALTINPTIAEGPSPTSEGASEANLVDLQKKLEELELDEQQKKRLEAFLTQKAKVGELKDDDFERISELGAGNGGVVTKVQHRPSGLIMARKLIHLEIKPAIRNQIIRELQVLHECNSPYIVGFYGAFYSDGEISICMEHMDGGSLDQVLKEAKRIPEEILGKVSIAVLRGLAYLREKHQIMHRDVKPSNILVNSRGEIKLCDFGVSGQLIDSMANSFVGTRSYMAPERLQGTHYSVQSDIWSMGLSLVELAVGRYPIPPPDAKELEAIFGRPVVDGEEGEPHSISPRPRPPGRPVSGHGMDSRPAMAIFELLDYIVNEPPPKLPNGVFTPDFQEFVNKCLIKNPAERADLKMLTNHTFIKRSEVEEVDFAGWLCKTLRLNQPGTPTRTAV
Chain of Cyclin-dependent kinase 8 (Homo sapiens) (P49336 whole entry): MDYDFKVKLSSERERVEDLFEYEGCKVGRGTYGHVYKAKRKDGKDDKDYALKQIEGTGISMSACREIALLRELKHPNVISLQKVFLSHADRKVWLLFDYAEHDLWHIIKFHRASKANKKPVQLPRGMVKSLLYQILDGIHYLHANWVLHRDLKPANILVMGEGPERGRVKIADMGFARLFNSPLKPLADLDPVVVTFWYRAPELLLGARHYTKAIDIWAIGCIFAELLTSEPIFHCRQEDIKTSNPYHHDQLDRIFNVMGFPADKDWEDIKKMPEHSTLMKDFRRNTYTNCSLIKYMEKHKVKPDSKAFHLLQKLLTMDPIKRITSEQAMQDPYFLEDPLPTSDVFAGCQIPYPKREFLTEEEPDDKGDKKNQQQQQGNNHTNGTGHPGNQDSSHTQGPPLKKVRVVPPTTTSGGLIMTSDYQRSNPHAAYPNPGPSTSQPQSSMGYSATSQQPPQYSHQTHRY

SMILES: CNc1cc(Oc2cc(C(=O)Nc3cc(N4CCN(C)CC4)cc(C(F)(F)F)c3)ccc2C)ncn1
- inhibition [1]: 20.7%
- inhibition [2]: 25.8%
- inhibition [3]: 5.3%

SMILES: CCN1CCN(Cc2ccc(NC(=O)c3ccc(C)c(Oc4ccnc5[nH]ccc45)c3)cc2C(F)(F)F)CC1
- inhibition [4]: 13.7%
- inhibition [5]: > 99.5%
- inhibition [6]: 2.9%
- inhibition [7]: inactive
- residual activity [8]: 2%

SMILES: CCN1CCN(Cc2ccc(NC(=O)c3ccc(C)c(/C=C/c4cnc5[nH]ccc5c4OC)c3)cc2C(F)(F)F)CC1
- residual activity [9]: 83%
- inhibition [10]: 100%
